Here are results for 61 compounds from US8778966B2, “Quinolinone derivatives as PARP and tank inhibitors” (Janssen Pharmaceutica, NV, priority 2007, dated 2014).

The experiment concerns the target T1, TANK-2 enzyme (Homo sapiens, UniProt Q9H2K2).
T1 construct: made in house
T1 sequence (Q9H2K2 1-1166): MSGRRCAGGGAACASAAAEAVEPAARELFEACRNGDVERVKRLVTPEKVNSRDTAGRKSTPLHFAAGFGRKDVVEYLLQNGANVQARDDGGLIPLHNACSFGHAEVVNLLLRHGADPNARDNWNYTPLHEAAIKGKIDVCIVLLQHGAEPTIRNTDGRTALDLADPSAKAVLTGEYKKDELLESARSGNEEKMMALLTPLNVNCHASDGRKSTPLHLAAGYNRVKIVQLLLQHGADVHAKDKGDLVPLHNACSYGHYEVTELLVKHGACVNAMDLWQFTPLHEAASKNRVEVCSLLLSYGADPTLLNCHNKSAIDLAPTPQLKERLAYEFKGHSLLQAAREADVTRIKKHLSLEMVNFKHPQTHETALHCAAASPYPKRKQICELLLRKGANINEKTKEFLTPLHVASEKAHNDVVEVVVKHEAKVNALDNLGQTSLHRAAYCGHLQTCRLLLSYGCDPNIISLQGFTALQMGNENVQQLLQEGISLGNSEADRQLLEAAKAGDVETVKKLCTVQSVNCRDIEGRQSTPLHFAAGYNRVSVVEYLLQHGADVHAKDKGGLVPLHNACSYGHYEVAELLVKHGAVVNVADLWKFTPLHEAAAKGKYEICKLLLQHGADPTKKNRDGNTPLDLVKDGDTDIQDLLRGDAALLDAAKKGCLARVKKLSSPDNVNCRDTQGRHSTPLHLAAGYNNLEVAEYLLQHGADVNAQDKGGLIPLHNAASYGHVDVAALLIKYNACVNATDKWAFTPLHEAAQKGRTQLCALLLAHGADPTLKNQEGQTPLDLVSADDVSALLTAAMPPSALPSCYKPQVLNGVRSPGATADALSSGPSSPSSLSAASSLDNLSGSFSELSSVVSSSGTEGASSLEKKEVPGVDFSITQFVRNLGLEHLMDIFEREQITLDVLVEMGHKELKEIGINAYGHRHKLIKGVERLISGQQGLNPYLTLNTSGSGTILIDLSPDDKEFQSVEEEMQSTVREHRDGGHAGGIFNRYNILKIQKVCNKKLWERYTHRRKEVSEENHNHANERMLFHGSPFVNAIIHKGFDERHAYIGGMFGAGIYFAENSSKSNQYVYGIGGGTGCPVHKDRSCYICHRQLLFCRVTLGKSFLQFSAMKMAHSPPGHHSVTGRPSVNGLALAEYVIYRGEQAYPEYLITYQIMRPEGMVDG
The experiment can be described thus: In vitro Scintillation Proximity Assay (SPA) for TANK-2 inhibitory activity. The format is biochemical. The conditions noted are these: for IC50: read-out: in vitro SPA assay TANK-2 pIC50 (converted). Summed up:
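Results are pIC50 values, with IC50 interpolated linearly around 50% of blank-subtracted control cpm. They come from a scintillation proximity read of TANK-2 (8 μg/ml) self-modification with [3H]-NAD+/NAD, incubated 120 min at room temperature in pH 7.4 Tris buffer containing MgCl2 and DTT. Compounds were first screened at 10^−5 M.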
For orientation: In a scintillation proximity assay essentially only radioactivity close to the scintillant gives light.

With `Cc1cc2ccc(C(C)(C#N)Cc3cc4ccccc4[nH]3)cc2[nH]c1=O` (stereo not shown) [Compound 234], the IC50 was 794 nM. On to `CCc1cc2ccc(C(C)(C#N)Cc3cc(Cl)cc4c3OCOC4)cc2[nH]c1=O` (stereo not shown) [Compound 90], for which the IC50 was 79.4 nM. On to `CCc1cc2ccc(C(C)(C#N)Cc3cccc(COC)c3)cc2[nH]c1=O` (stereo not shown) [Compound 8], for which the IC50 was 79.4 nM. Still for that read-out and setting: next, `CCc1cc2ccc(C(C)(C#N)Cc3cccc(CO)c3)cc2[nH]c1=O` (stereo not shown) [Compound 9]: 63.1 nM; `CCc1cc2ccc(C(C)(C#N)Cc3cccc(CNCCN4CCOCC4)c3)cc2[nH]c1=O` (stereo not shown) [Compound 61]: 100 nM; `CCc1cc2ccc(C(C)(C#N)Cc3cc4c(cc3Cl)OCO4)cc2[nH]c1=O` (stereo not shown) [Compound 91]: 63.1 nM.

For the compound `CCc1cc2ccc(C(C#N)(Cc3ccccc3)CC3CC3)cc2[nH]c1=O` (stereo not shown) [Compound 28], the IC50 is 316 nM. On the same count and under the same terms, next, `CCc1cc2ccc(C(C)(C#N)Cc3cccc4nnn(C)c34)cc2[nH]c1=O` (stereo not shown) [Compound 94]: 251 nM; `CCc1cc2ccc(C(C)(C#N)Cc3cccc(CNCCOC)c3)cc2[nH]c1=O` (stereo not shown) [Compound 60]: 63.1 nM; `CCc1cc2ccc(C(C)(C#N)CCOc3ccc4c(c3)OCO4)cc2[nH]c1=O` (stereo not shown) [Compound 279]: 398 nM. In the case of `CCc1cc2ccc(C(C)(C#N)Cc3ccccc3OC(F)(F)F)cc2[nH]c1=O` (stereo not shown) [Compound 102], the IC50 was 200 nM. With `CCc1cc2ccc([C@](C)(C#N)Cc3nc(OC)cc(OC)n3)cc2[nH]c1=O` (single isomer, unassigned) [Compound 52], the IC50 is 200 nM.

`CCc1cc2ccc(C(C)(C#N)Cc3ccncc3)cc2[nH]c1=O` (stereo not shown) [Compound 98]: the IC50 was 31.6 nM. The same measure, in the same setting: the value for `CCc1cc2ccc(C(C)(C#N)Cc3cccc(OCCCN4CCN(C)CC4)c3)cc2[nH]c1=O` (stereo not shown) [Compound 69] was 63.1 nM; that for `CCc1cc2ccc(C(C)(C#N)Cc3ccc4nccnc4c3)cc2[nH]c1=O` (stereo not shown) [Compound 87] was 50.1 nM; that for `Cc1cc2ccc(C(C)(C#N)Cc3ccc(Cl)s3)cc2[nH]c1=O` (stereo not shown) [Compound 72] was 251 nM. Consider `CCc1cc2ccc(C(C)(C#N)Cc3cc(OC)cc(OC)c3)cc2[nH]c1=O` (stereo not shown) [Compound 332], for which the IC50 was 501 nM. Same read-out and setting: the value for `CCc1cc2ccc(C(C)(C#N)CC3COc4ccccc4O3)cc2[nH]c1=O` (single isomer, unassigned) [Compound 47] was 316 nM.

As for `CCc1cc2ccc(C(C)(C#N)Cc3ccccc3C#N)cc2[nH]c1=O` (stereo not shown) [Compound 101], the IC50 is 39.8 nM.

Turning to `CCc1cc2ccc(C(C)(C#N)Cc3nn(C)c4ccccc34)cc2[nH]c1=O` (stereo not shown) [Compound 95], the IC50 was 79.4 nM.

As to `CCOP(=O)(OCC)c1cccc(CC(C)(C#N)c2ccc3cc(CC)c(=O)[nH]c3c2)c1` (stereo not shown) [Compound 50], the IC50 is 200 nM.

With `Cc1cc2ccc(C(C)(C#N)Cc3ccc(C(F)(F)F)o3)cc2[nH]c1=O` (stereo not shown) [Compound 73], the IC50 was 251 nM. Same read-out and setting: the value for `Cc1cc2ccc(C(C)(C#N)Cc3ccccc3)cc2[nH]c1=O` (stereo not shown) [Compound 76] was 31.6 nM; that for `CCc1cc2ccc(C(C)(C#N)Cc3cccc(N4CCCCC4)c3)cc2[nH]c1=O` (stereo not shown) [Compound 65] was 39.8 nM. Consider `CCc1cc2ccc(C(C)(C#N)Cc3ccc(OC)c(C#N)c3)cc2[nH]c1=O` (stereo not shown) [Compound 77], for which the IC50 is 100 nM. Same read-out and setting: next, `CCc1cc2ccc(C(C)(C#N)Cc3cccc(CN(C)C)c3)cc2[nH]c1=O` (stereo not shown) [Compound 7]: 158 nM; `CCc1cc2ccc(C(C)(C#N)Cc3ccccc3C(F)(F)F)cc2[nH]c1=O` (stereo not shown) [Compound 103]: 79.4 nM.

Consider `CCc1cc2ccc(C(C)(C#N)Cc3cccc(N4CCN(C)CC4)c3)cc2[nH]c1=O` (stereo not shown) [Compound 66], for which the IC50 is 31.6 nM. Still for that read-out and setting: the value for `CCc1cc2ccc(C(C)(C#N)Cc3nncn3C)cc2[nH]c1=O` (stereo not shown) [Compound 93] was 398 nM; that for `CCc1cc2ccc(C(C)(C#N)CCOc3ccccc3C#N)cc2[nH]c1=O` (stereo not shown) [Compound 276] was 79.4 nM; that for `CCc1cc2ccc(C(C)(C#N)Cc3cc(Cl)ccc3Cl)cc2[nH]c1=O` (stereo not shown) [Compound 99] was 79.4 nM. Still for that read-out and setting: the value for `CCc1cc2ccc(C(C)(C#N)Cc3cccc(OCC4CC4)c3)cc2[nH]c1=O` (stereo not shown) [Compound 67] was 126 nM; that for `CCc1cc2ccc(C(C)(C#N)Cc3cccc(N4CCNCC4)c3)cc2[nH]c1=O` (stereo not shown) [Compound 64] was 25.1 nM; that for `CCc1cc2ccc(C(C)(C#N)Cc3c(C)c(C)cc(C)c3C)cc2[nH]c1=O` (stereo not shown) [Compound 88] was 200 nM. Still for that read-out and setting: next, `Cc1cc2ccc(C(C)(C#N)Cc3cc4ccccc4s3)cc2[nH]c1=O` (stereo not shown) [Compound 71]: 251 nM; `Cc1cc2ccc(C(C)(C#N)Cc3cccc4cccnc34)cc2[nH]c1=O` (stereo not shown) [Compound 74]: 126 nM. Turning to `CCc1cc2ccc(C(C)(C#N)Cc3ccc(F)c(C#N)c3)cc2[nH]c1=O` (stereo not shown) [Compound 267], the IC50 is 251 nM.

In the case of `CCc1cc2ccc(C(C)(C#N)CCOc3ccccc3F)cc2[nH]c1=O` (stereo not shown) [Compound 278], the IC50 was 316 nM.

For the compound `CCc1cc2ccc(C(C)(C#N)Cc3cccc(CNC)c3)cc2[nH]c1=O` (stereo not shown) [Compound 59], the IC50 is 79.4 nM. Still for that read-out and setting: the value for `CCc1cc2ccc(C(C)(C#N)Cc3cccc(C(=O)NCCOC)c3)cc2[nH]c1=O` (stereo not shown) [Compound 62] was 79.4 nM; that for `CCc1cc2ccc(C(C)(C#N)Cc3ccc(C)c(F)c3F)cc2[nH]c1=O` (stereo not shown) [Compound 83] was 79.4 nM; that for `CCc1cc2ccc(C(C)(C#N)Cc3cc(Cl)ccc3OC)cc2[nH]c1=O` (stereo not shown) [Compound 80] was 126 nM. Consider `CCc1cc2ccc(C(C)(C#N)Cc3cc(Cl)cc4c3OCOC4)cc2[nH]c1=O` (stereo not shown) [Compound 92], for which the “in vitro SPA assay TANK-2 pIC50” value amounted to 7.1. Turning to `CCc1cc2ccc(C(C)(C#N)Cc3c(F)ccc(C)c3F)cc2[nH]c1=O` (stereo not shown) [Compound 41], the IC50 is 79.4 nM. Take `CCc1cc2ccc(C(C)(C#N)Cc3nc4ccccc4o3)cc2[nH]c1=O` (stereo not shown) [Compound 85]: the IC50 was 100 nM.

Consider `CCc1cc2ccc(C(C)(C#N)Cc3cccc(Br)c3C)cc2[nH]c1=O` (stereo not shown) [Compound 81], for which the IC50 was 100 nM.

For the compound `CCc1cc2ccc(C(C)(C#N)Cc3cccc(C(=O)N(C)C)c3)cc2[nH]c1=O` (stereo not shown) [Compound 63], the IC50 is 200 nM. Still for that read-out and setting: the value for `Cc1cc2ccc(C(C)(C#N)Cc3nc4ccccc4s3)cc2[nH]c1=O` (stereo not shown) [Compound 75] was 251 nM; that for `CC(C#N)(Cc1ccccc1)c1ccc2cc(CO)c(=O)[nH]c2c1` (stereo not shown) [Compound 40] was 158 nM; that for `CCc1cc2ccc(C(C)(C#N)Cc3c(C)cccc3C)cc2[nH]c1=O` (stereo not shown) [Compound 84] was 126 nM. Same read-out and setting: the value for `CCc1cc2ccc(C(C)(C#N)Cc3cn4ccccc4n3)cc2[nH]c1=O` (stereo not shown) [Compound 96] was 100 nM.

On to `CCc1cc2ccc(C(C)(C#N)Cc3csc(C)n3)cc2[nH]c1=O` (stereo not shown) [Compound 86], for which the IC50 is 158 nM. Regarding `CCc1cc2ccc(C(C)(C#N)Cc3cccc(C#C[Si](C)(C)C)c3)cc2[nH]c1=O` (stereo not shown) [Compound 1], the IC50 is 3980 nM. On the same count and under the same terms, next, `Cc1cc2ccc(C(C)(C#N)Cc3noc(-c4cccc(C(F)(F)F)c4)n3)cc2[nH]c1=O` (stereo not shown) [Compound 70]: 200 nM; `CCc1cc2ccc(C(C)(C#N)Cc3cccc(Br)c3)cc2[nH]c1=O` (stereo not shown) [Compound 49]: 31.6 nM; `CCc1cc2ccc(C(C)(C#N)Cc3cccc(C#N)c3)cc2[nH]c1=O` (stereo not shown) [Compound 51]: 39.8 nM. On to `CCc1cc2ccc(C(C)(C#N)Cc3cccnc3)cc2[nH]c1=O` (stereo not shown) [Compound 97], for which the IC50 is 63.1 nM. On the same count and under the same terms, the value for `CCc1cc2ccc(C(C)(C#N)Cc3ccccc3)cc2[nH]c1=O` (stereo not shown) [Compound 44] was 39.8 nM; that for `CCc1cc2ccc([C@](C)(C#N)Cc3ccccc3)cc2[nH]c1=O` (single isomer, unassigned) [Compound 45] was 25.1 nM. Same read-out and setting: next, `CCc1cc2ccc(C(C)(C#N)CCOc3cc(Cl)c(Cl)cc3Cl)cc2[nH]c1=O` (stereo not shown) [Compound 277]: 2000 nM.

Take `CCc1cc2ccc([C@@](C)(C#N)Cc3nc(OC)cc(OC)n3)cc2[nH]c1=O` (single isomer, unassigned) [Compound 53]: the IC50 was 158 nM.
